Molecular target: T1, mitochondrial complex I (Bos taurus, UniProt P03887+P17694+P25708+P42026)
T1 construct: gene MT-ND1; native complex immunocaptured from solubilized bovine heart mitochondria
Assay: NADH oxidation, […] nm, immunocaptured complex
Assay type: biochemical
Conditions: ubiquinone 1, phospholipids, room temperature

Row | SMILES | % activity relative to vehicle at 50 μM [%]
1 | CO/C(=C/C(N)=O)[C@H](C)[C@H](/C=C/c1csc(-c2csc([C@@H](C)/C=C/C=C/C(C)C)n2)n1)OC [myxothiazole] | 48
2 | Cc1nc(-c2ccc(-c3ccc(C(=O)N4CCc5cc6c(cc54)C4(CCN(C)CC4)CO6)cc3)c(C)c2)no1 [SB-224289] | 60
